Experiments:
collagenase (MMP-1) = molecular target: T1, collagenase (MMP-1) (Homo sapiens, UniProt P03956); assay: MMP-1 enzyme inhibition assay (coumarin-labelled peptide substrate); type: biochemical; details: @ 5 μM; read-out: percentage inhibition MMP1
T1 sequence (P03956 100-469): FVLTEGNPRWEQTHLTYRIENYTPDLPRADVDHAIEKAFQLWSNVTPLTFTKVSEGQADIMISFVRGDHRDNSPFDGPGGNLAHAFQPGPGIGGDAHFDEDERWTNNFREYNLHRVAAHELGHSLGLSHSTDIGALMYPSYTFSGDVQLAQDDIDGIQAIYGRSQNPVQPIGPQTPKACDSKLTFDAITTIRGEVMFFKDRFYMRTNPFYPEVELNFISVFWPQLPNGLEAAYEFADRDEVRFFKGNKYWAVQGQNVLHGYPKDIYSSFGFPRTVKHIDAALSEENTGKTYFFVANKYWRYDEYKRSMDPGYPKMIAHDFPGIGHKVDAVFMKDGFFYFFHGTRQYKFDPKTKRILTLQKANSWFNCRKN
Outline: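 Recombinant human MMP-1, APMA-activated if needed, in Tris-HCl pH 7.6 with NaCl, CaCl2 and 0.05% Brij 35; McaPLGLDpaAR substrate added as 8 μM solution, 2 h at 37 °C. Fluorescence (320/405 nm) read without stopping; IC50 from 10 duplicate concentrations (100 μM–5.1 nM) by four-parameter fit.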

human ADAM17 (TACE) = human ADAM17 (TACE) (Homo sapiens, UniProt P78536); assay: TACE enzyme inhibition assay; type: biochemical
Outline: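 Recombinant human ADAM17 was run in 20 mM HEPES pH 7.5 with 0.05% Brij 35, using Mca/Dnp-TNF-alpha(−5 to +6) amide substrate (5 μM solution), for 1.5 h at room temperature. Fluorescence (ex 355/em 405 nm) was read unstopped over ten concentrations (100 μM–0.01 nM). IC50 came from a four-parameter fit, rounded to one significant figure.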

Sequence of human ADAM17 (TACE) (P78536 215-824): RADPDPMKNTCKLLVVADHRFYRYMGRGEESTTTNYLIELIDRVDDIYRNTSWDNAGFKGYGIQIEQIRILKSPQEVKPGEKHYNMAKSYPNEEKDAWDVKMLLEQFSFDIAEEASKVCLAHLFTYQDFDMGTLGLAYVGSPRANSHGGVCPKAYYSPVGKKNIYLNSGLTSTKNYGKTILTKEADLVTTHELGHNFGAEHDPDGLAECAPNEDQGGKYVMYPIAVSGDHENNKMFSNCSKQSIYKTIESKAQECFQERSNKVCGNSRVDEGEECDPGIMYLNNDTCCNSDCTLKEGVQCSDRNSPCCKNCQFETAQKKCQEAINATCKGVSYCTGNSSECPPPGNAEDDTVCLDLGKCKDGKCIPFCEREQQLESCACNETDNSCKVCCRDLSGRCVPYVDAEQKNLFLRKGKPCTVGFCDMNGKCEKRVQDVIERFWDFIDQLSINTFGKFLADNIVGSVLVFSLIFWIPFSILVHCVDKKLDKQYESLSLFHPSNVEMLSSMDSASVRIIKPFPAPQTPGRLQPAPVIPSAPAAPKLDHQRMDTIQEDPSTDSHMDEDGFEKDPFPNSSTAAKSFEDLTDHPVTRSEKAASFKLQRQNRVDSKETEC

inhibition at 5 µM (collagenase (MMP-1)) [%]	IC50 (human ADAM17 (TACE)) [µM]	Compound
3	> 5	CC(C)c1ccc2c(c1)CCN(S(=O)(=O)CC(C1CCCC1)N(O)C=O)C2 (stereo not shown) [Example 81, N-{1-cyclopentyl-2-[(6-isopropyl-3,4-dihydroisoquinolin-2(1H)-yl)sulfonyl]ethyl}-N-hydroxyformamide]
10	> 5	O=CN(O)C(CS(=O)(=O)N1CCc2ccc(C(F)(F)F)cc2C1)C1CCCC1 (stereo not shown) [Example 82, N-(1-cyclopentyl-2-{[7-(trifluoromethyl)-3,4-dihydro-isoquinolin-2(1H)-yl]sulfonyl}ethyl)-N-hydroxyformamide]
4	> 5	O=CN(O)C(CS(=O)(=O)N1CCc2ccc(C(F)(F)F)cc2C1)C1CC1 (stereo not shown) [Example 83, N-(1-cyclopropyl-2-{[7-(trifluoromethyl)-3,4-dihydroisoquinolin-2(1H)-yl]sulfonyl}ethyl)-N-hydroxyformamide]
5	> 5	CC(C)c1ccc2c(c1)CCN(S(=O)(=O)CC(C1CC1)N(O)C=O)C2 (stereo not shown) [Example 85, N-{1-cyclopropyl-2-[(6-isopropyl-3,4-dihydroisoquinolin-2(1H)-yl)sulfonyl]ethyl}-N-hydroxyformamide]
49	0.059	O=CN(O)C(CCc1cccnc1)CS(=O)(=O)N1CCc2ccc(Cl)cc2C1 (stereo not shown) [Example 86, N-(1-{[(7-chloro-3,4-dihydroisoquinolin-2(1H)-yl)sulfonyl]methyl}-3-pyridin-3-ylpropyl)-N-hydroxyformamide]

— patent US7879876B2, “Sulfonamide derivatives and use thereof for the modulation of metalloproteinases” (Merck Serono SA, priority 2005, dated 2011)
